Results on one compound are retold here after US7208515B2, “Diphenylmethyl compounds useful as muscarinic receptor antagonists” (Theravance, Inc., priority 2004, dated 2007).

Assay [1] has as its system ACh-induced bronchoconstriction. The experiment in a line: Duration of bronchoprotection in guinea pig model of acetylcholine-induced bronchoconstriction. The conditions noted are these: inhalation, 1.5 hours post-dose. The class given is in vivo. Here is the method: Determination of Duration of Bronchoprotection in Guinea Pig Model of Acetylcholine-Induced Bronchoconstriction
Groups of six male guinea pigs (Duncan-Hartley (HsdPoc:DH) Harlan, Madison, Wis.) weighing between 250 and 350 g were individually identified by cage cards. Throughout the study animals were allowed access to food and water ad libitum.
Test compounds were administered via inhalation over 10 minutes in a whole-body exposure dosing chamber (R&S Molds, San Carlos, Calif.). The dosing chambers were arranged so that an aerosol was simultaneously delivered to 6 individual chambers from a central manifold. Guinea pigs were exposed to an aerosol of a test compound or vehicle (WFI). […] This was measured gravimetrically by comparing pre-and post-nebulization weights of the filled nebulizer.
The bronchoprotective effects of test compounds administered via inhalation were evaluated using whole body plethysmography at 1.5, 24, 48 and 72 hours post-dose.
Forty-five minutes prior to the start of the pulmonary evaluation, each guinea pig was anesthetized with an intramuscular injection of ketamine (43.75 mg/kg), xylazine (3.50 mg/kg) and acepromazine (1.05 mg/kg). […] The depth of anesthesia was monitored and adjusted if the animal responded to pinching of its paw or if the respiration rate was greater than 100 breaths/minute. […]

The subject of assay [2] is MCh-induced depressor responses. The experiment in a line: Methacholine-induced depressor responses in conscious guinea pigs. The assay is classed as in vivo. The settings on record: guinea pig, inhalation. The source says: Methacholine-Induced Depressor Responses in Conscious Guinea Pigs
Healthy, adult, male Sprague-Dawley guinea pigs (Harlan, Indianapolis, Ind.), weighing between 200 and 300 g were used in these studies. Under isoflurane anesthesia (to effect), animals were instrumented with common carotid artery and jugular vein catheters (PE-50 tubing). The catheters were exteriorized utilizing a subcutaneous tunnel to the subscapular area. All surgical incisions were sutured with 4-0 Ethicon Silk and the catheters locked with heparin (1000 units/mL). Each animal was administered saline (3 mL, SC) at the end of surgery as well as buprenorphine (0.05 mg/kg, IM). Animals were allowed to recover on a heating pad before being returned to their holding rooms.
Approximately 18 to 20 hours following surgery, the animals were weighed and the carotid artery catheter on each animal was connected to a transducer for recording arterial pressure. Arterial pressure and heart rate was recorded using a Biopac MP-100 Acquisition System. Animals were allowed to acclimate and stabilize for a period of 20 minutes.
Each animal was challenged with MCh (0.3 mg/kg, IV) administered through the jugular venous line and the cardiovascular response was monitored for 10 minutes. […] At 1.5 and 24 h post-dosing, the animals were re-challenged with MCh (0.3 mg/kg, IV) and the hemodynamic response was determined. […]

Molecules are shown by their SMILES.

In the case of `CNCC(=O)NCCCCCN1CC[C@@H](C(C(N)=O)(c2ccccc2)c2ccccc2)C1` [Example 1], the “PD2(50) for ACh-induced bronchoconstriction” value in assay [1] is “less than 200 μg/mL”. Further, in assay [2], the “apparent lung-selectivity index (ratio of anti-depressor ID50 to bronchoprotective ID50)” value is on record as “greater than 5”.
